Results from Sander's compilation of Henry's law constants (doi:10.1213/00000539-199904000-00035).

Experiment: Henry solubility constant Hcp at 310 K (mol/(m3 Pa))
Details: reference: Eger et al. (1999)

Row | Structure (SMILES) | Henry solubility constant Hcp at 310 K
1 | CC(O)(C(F)(F)F)C(F)(F)F [1,1,1,3,3,3-hexafluoro-2-methyl-2-propanol] | 0.018
2 | OC(C(F)(F)F)C(F)(F)F [1,1,1,3,3,3-hexafluoro-2-propanol] | 0.1
3 | CC(O)C(F)(F)F (configuration not stated) [1,1,1-trifluoro-2-propanol] | 0.13
4 | CCCCCCO [1-hexanol] | 0.35
5 | CCCCCCCCO [1-octanol] | 0.27
6 | OCC(F)(F)F [2,2,2-trifluoroethanol] | 0.43
7 | OCC(F)(F)C(F)F [2,2,3,3-tetrafluoro-1-propanol] | 0.75
8 | OCC(F)(F)C(F)C(F)(F)F (configuration not stated) [2,2,3,4,4,4-hexafluoro-1-butanol] | 0.32
9 | CC(O)C(F)(F)C(F)(F)C(F)(F)F (configuration not stated) [3,3,4,4,5,5,5-heptafluoro-2-pentanol] | 0.009
10 | CCO [ethanol] | 1

More lines, now with the values ahead:

Row | Henry solubility constant Hcp at 310 K | Structure (SMILES)
11 | 0.00094 | OCCC(F)(F)C(F)(F)C(F)(F)C(F)(F)C(F)(F)C(F)(F)F [1H,1H,2H,2H-perfluoro-1-octanol]
12 | 0.069 | OCC(F)(F)C(F)(F)F [2,2,3,3,3-pentafluoro-1-propanol]
13 | 0.0017 | OCC(F)(F)C(F)(F)C(F)(F)C(F)(F)C(F)(F)F [2,2,3,3,4,4,5,5,6,6,6-undecafluoro-1-hexanol]
14 | 0.0006 | OCC(F)(F)C(F)(F)C(F)(F)C(F)(F)C(F)(F)C(F)(F)F [2,2,3,3,4,4,5,5,6,6,7,7,7-tridecafluoro-1-heptanol]
15 | 0.00023 | OCC(F)(F)C(F)(F)C(F)(F)C(F)(F)C(F)(F)C(F)(F)C(F)(F)F [2,2,3,3,4,4,5,5,6,6,7,7,8,8,8-pentadecafluoro-1-octanol]
16 | 0.064 | OCC(F)(F)C(F)(F)C(F)(F)C(F)(F)C(F)(F)C(F)F [2,2,3,3,4,4,5,5,6,6,7,7-dodecafluoro-1-heptanol]
17 | 0.25 | OCC(F)(F)C(F)(F)C(F)(F)C(F)F [2,2,3,3,4,4,5,5-octafluoro-1-pentanol]
